{"source": "patent US11124488B2", "about": "“Preparation of 2-([1,2,3]triazol-2-yl)-benzoic acid derivatives” (IDORSIA PHARMACEUTICALS LTD, priority 2017, dated 2021)"}
{"smiles": "COc1ccc(-n2nccn2)c(C(=O)N2CCC[C@@]2(C)C(=O)O)c1", "note": "[Reference Example 4.2, (S)-1-(5-methoxy-2-(2H-1,2,3-triazol-2-yl)benzoyl)-2-methylpyrrolidine-2-carboxylic acid]", "values": [{"measurement": "melting point", "value": 178, "unit": "°C"}]}
{"smiles": "COc1ccc(-n2nccn2)c(C(=O)N2CCC[C@@]2(C)C(=O)Nc2ccc(Cl)c(C)c2N)c1", "note": "[Reference Example 4.3, (S)—N-(2-amino-4-chloro-3-methylphenyl)-1-(5-methoxy-2-(2H-1,2,3-triazol-2-yl)benzoyl)-2 methylpyrrolidine-2-carboxamide]", "values": [{"measurement": "melting point", "value": 185, "unit": "°C"}]}
